Data published in US20250064967A1, “COMBINATION OF ANTIBODY-DRUG CONJUGATE AND ATR INHIBITOR” (AstraZeneca UK Limited, priority 2021, published 2025).

Assays:
Parameters in all cases: species or system Female Nude mice
[1] = test system: CTG-3718 xenograft (ovarian PDX, relapsed on talazoparib); assay: Antitumor test in vivo, CTG3718 ovarian patient derived xenograft model (Example 8); settings: CTG-3718 ovarian PDX; DS-1062 10 mg/kg IV single dose; AZD6738 25 mg/kg PO BID Day 1-14
From the text: (§1) Female Nude mice (Envigo) aged 5-8 weeks were used, following 7 days acclimatisation before entry into the study. The human patient-derived xenograft (PDX) model, CTG-3718, was established from fragments of freshly resected tumor of a ovarian cancer patient whom relapsed on treatment with PARP inhibitor talazoparib. This PDX was obtained in accordance with appropriate consent procedures. This ovarian PDX model was subcutaneously passaged in vivo as fragments from animal to animal in nude mice. When tumors reached approximately 250 mm^3, similar-sized tumors were randomly assigned to treatment groups as shown in Table 11:
(§2) The dose of compound for each animal was calculated based on the individual body weight on the day of dosing. DS-1062 and AZD6738 were dosed on the same day, with DS-1062 being administered approximately 5 hour post the PO dose of AZD6738. DS-1062 was administered as a single dose at 10 mg/kg on day 1, and AZD6738 was administered at 25 mg/kg BID for 14 days.
(§3) The dosing solution for DS-1062 was prepared on the day of dosing by diluting the DS-1062 stock (20.1 mg/ml) in 25 mM histidine buffer, 9% sucrose (pH5.5) to 2 mg/ml for 10 mg/kg dosing solution. The dosing solution was mixed well using a pipette before administration via IV injection at a dosing volume of 5 ml/kg.
DMSO (10% of the total vehicle volume) was added to the compound and mixed well with a pellet pestle. […]

[2] = test system: NCI-N87 xenograft (gastric cancer cell line); assay: Antitumor test in vivo, NCI-N87 xenograft model (Example 4); settings: DS-1062 10 mg/kg IV single dose, AZD6738 25 mg/kg PO QD 14 days
Protocol: (§4) Female Nude mice (Charles River) aged 5-8 weeks were used, following 7 days acclimatisation before entry into the study. 5×10^6 NCI-N87 tumor cells (gastric cancer cell line) (1:1 in Matrigel) were implanted subcutaneously onto the flank of the female Nude mice. When tumors reached approximately 250 mm^3, similar-sized tumors were randomly assigned to treatment groups as shown in Table 4:
as §2, with “QD” for “BID”, “days. Duration of dosing was for 14 days.” for “days.”
The dosing solutions for DS-1062 were prepared on the day of dosing by diluting the DS-1062 stock (20.1 mg/ml) in 25 mM histidine buffer, 9% sucrose (pH5.5) to 0.6 mg/ml, and 2 mg/ml for the 3 mg/kg and 10 mg/kg dosing solutions, respectively. Each dosing solution was mixed well using a pipette before administration via IV injection at a dosing volume of 5 ml/kg. […]
(§5) Tumor growth inhibition (TGI) was calculated as follows:
(§6) Statistical significance was evaluated using one-tailed t-test of (log(relative tumor volume)=log(final vol/start vol)) at the day of final measure, comparing to vehicle control. […]

[3] = test system: N87-DS-1062 resistant tumor cell xenograft (gastric cancer cell line); assay: Antitumor test in vivo, N87 DS-1062 resistant model (Example 9); settings: N87-DS-1062 resistant xenograft; DS-1062 10 mg/kg IV single dose; AZD6738 25 mg/kg PO BID Day 1-7
Protocol: as §4, with “N87-DS-1062 resistant” for “NCI-N87”, “13:” for “4:”
as §2, with “7” for “14”
as §3
DMSO (10% of the total vehicle volume) was added to the compound and mixed well with a pellet pestle. Sonication for approximately 5 minutes was required to fully dissolve the compound. Following which, propylene glycol (40% of the total vehicle volume) was added and mixed well using a magnetic stirrer. […]

[4] = test system: CTG-3303 xenograft (TNBC PDX, relapsed on talazoparib); assay: Antitumor test in vivo, TNBC patient derived xenograft model CTG-3303 (Example 5); settings: CTG-3303 TNBC PDX; for TGI % day 46: DS-1062 10 mg/kg IV single dose, AZD6738 25 mg/kg PO QD 14 days; for percentage of mice achieving a complete response (tumor volume=0 mm^3): day 93 post treatment, 8 mice per group, DS-1062 10 mg/kg, AZD6738 25 mg/kg QD
From the text: as §1, with “mice (Charles River)” for “mice (Envigo)”, “model, CTG-3303,” for “model, CTG-3718,”, “a triple negative breast” for “a ovarian”, “cancer (TNBC)” for “cancer”, “This TNBC” for “This ovarian”, “Table 6:” for “Table 11:”
as §2, with “QD” for “BID”, “days. Duration of dosing was for 14 days.” for “days.”
The dosing solutions for DS-1062 were prepared on the day of dosing by diluting the DS-1062 stock (20.1 mg/ml) in 25 mM histidine buffer, 9% sucrose (pH5.5) to 0.6 mg/ml, and 2 mg/ml for the 3 mg/kg and 10 mg/kg dosing solutions, respectively. Each dosing solution was mixed well using a pipette before administration via IV injection at a dosing volume of 5 ml/kg.
DMSO (10% of the total vehicle volume) was added to the compound and mixed well with a pellet pestle. Sonication for approximately 5 minutes was required to fully dissolve the compound. Following which, propylene glycol (40% of the total vehicle volume) was added and mixed well using a magnetic stirrer. A volume of 10 ml of sterile water was added to the glass wheaton vial to rinse any remaining compound from the vial then transferred to the glass bottle. The remaining volume of sterile water in total (50% of the final vehicle volume) was added to the glass bottle and mixed well using a magnetic stirrer. The dosing solution was protected from light and kept at room temperature for up to 7 days being continually mixed. The final dosing matrix for 25 mg/kg AZD6738 was a clear solution with a faint yellow hue.
Values shown are geometric mean±SEM; n=8 for all treatment groups. The mice which had reached the humane endpoint (e.g. large tumor burden) during the study were removed from the group and the remaining mice were used for the calculation of the TGI.

[5] = test system: NCI-N87 xenograft (gastric cancer cell line); assay: Antitumor test in vivo, dose optimization, NCI-N87 xenograft model (Example 7); settings: DS-1062 10 mg/kg IV single dose, AZD6738 25 mg/kg PO BID Day 1-14
Protocol: as §4, with “(Envigo)” for “(Charles River)”, “9:” for “4:”
The dose of compound for each animal was calculated based on the individual body weight on the day of dosing. DS-1062 was administered as a single dose at 10 mg/kg on day 1, and AZD6738 was administered at 25 mg/kg BID as listed in Table 9.
as §3, with “solution. Each” for “solution. The”
DMSO (10% of the total vehicle volume) was added to the compound and mixed well with a pellet pestle. Sonication for approximately 5 minutes was required to fully dissolve the compound. […]
as §5, §6

Molecule | TGI % day 22 [1] [%] | TGI % day 33 [2] [%] | TGI % day 21 [3] [%] | TGI % day 46 [4] [%] | percentage of mice achieving a complete response (tumor volume=0 mm^3) [4] [%] | TGI % day 42 [5] [%]
C[C@@H]1COCCN1c1cc(C2([S@](C)(=N)=O)CC2)nc(-c2ccnc3[nH]ccc23)n1 [AZD6738, 4-{4-[(3R)-3-Methylmorpholin-4-yl]-6-[1-((R)-S-methylsulfonimidoyl)cyclopropyl]pyrimidin-2-yl}-1H-pyrrolo[2,3-b]pyridine] | −25.7 | 30.1 | −9.8 | 2.3 | 0 | 23.7
DS-1062: anti-TROP2 antibody-drug conjugate; exatecan-derivative drug-linker conjugated to the anti-TROP2 antibody via a thioether bond; DAR ~4 (conjugate, chains of the INN, looked up, exatecan-derivative drug-linker, DAR ~4) VH: QVQLVQSGAEVKKPGASVKVSCKASGYTFTTAGMQWVRQAPGQGLEWMGWINTHSGVPKYAEDFKGRVTISADTSTSTAYLQLSSLKSEDTAVYYCARSGFGSSYWYFDVWGQGTLVTVSS VL: DIQMTQSPSSLSASVGDRVTITCKASQDVSTAVAWYQQKPGKAPKLLIYSASYRYTGVPSRFSGSGSGTDFTLTISSLQPEDFAVYYCQQHYITPLTFGQGTKLEIK | 69.8 | 84.1 | 0.77 | 88.2 | 0 | 74.8
